Data published in US12186457B2, “Sphingolipid coatings and process for manufacturing sphingolipid coatings effective for inhibiting biofilm formation” (UNIVERSITY OF CINCINNATI, priority 2015, dated 2025).
Blank lines part the entries; values can stand above or below the molecule they belong to.

Columns and labels:
Solubility in water = type: physicochemical
[1] = Quantification of sphingosine on the coated surface by mass spectrometry; type: physicochemical; details: mass spectrometry (FIG. 18A)
Experimental: Coated plastic surfaces were extracted by a one-step lipid extraction. Briefly, a plastic piece was transferred into a siliconized glass tube and adsorbed sphingosine was extracted by addition of 10 mL methanol and sonification on ice for 1 hour. After centrifugation, the lipid extract was diluted with methanol and 50 pmol of C17-sphingosine was added as internal standard. […] Ion funnel parameters were: high pressure RF voltage 110 V and low pressure RF voltage 60 V. Multiple reaction monitoring (MRM) transition 300.3 m/z>282.3 m z at 8 eV collision energy was used for quantification of sphingosine, whereas MRM transition 286.3 m/z>268.3 m/z at 8 eV collision energy was used for quantification of C17-sphingosine. Quantification was performed with Mass Hunter Software (Agilent Technologies).
To determine the total amount of sphingosine present on the surface of the endotracheal tubes after dip coating, we performed mass spectrometry (FIG. 18A) and a sphingosine kinase radioactivity assay (FIG. 18B). […] Sphingosine was either extracted and analyzed by mass spectrometry (FIG. 18A) or sphingosine kinase assay (FIG. 18B). The amount of sphingosine calculated on the surface after dip coating is (A) 131 nmol/cm^2 and (B) 152.5 nmol/cm^2, respectively.

[2] = Quantification of sphingosine on the coated surface by sphingosine kinase assay; type: physicochemical; details: sphingosine kinase assay (FIG. 18B)
Experimental: Plastic pieces were extracted in CHCl3/CH3OH/1N HCl (100:100:1, v/v/v), the lower phase was dried and resuspended in a detergent solution (7.5% [w/v] n-octyl glucopyranoside, 5 mM cardiolipin in 1 mM diethylenetriaminepentaacetic acid (DTPA)). The kinase reaction was initiated by addition of 0.004 units sphingosine kinase in 50 mM HEPES (pH 7.4), 250 mM NaCl, 30 mM MgCl2 1 μM ATP and 5 μCi [^32P]γATP. Samples were incubated for 60 min at 37° C. with shaking (350 rpm), then extracted in 20 μl 1N HCl, 800 μl CHCl3/CH3OH/1N HCl (100:200:1, v/v/v), 240 μl CHCl3 and 2 M KCl. The lower phase was collected, dried, dissolved in 20 μL of CHCl3:CH3OH (1:1, v/v) and separated on Silica G60 thin layer chromatography (TLC) plates using CHCl3/CH3OH/acetic acid/H2O (90:90:15:5, v/v/v/v) for SPH. The TLC plates were analyzed using a phosphoimager.
To determine the total amount of sphingosine present on the surface of the endotracheal tubes after dip coating, we performed mass spectrometry (FIG. 18A) and a sphingosine kinase radioactivity assay (FIG. 18B). Both methods confirmed a concentration of sphingosine in the nmol to μmol range per cm^2. […] Sphingosine was either extracted and analyzed by mass spectrometry (FIG. 18A) or sphingosine kinase assay (FIG. 18B). The amount of sphingosine calculated on the surface after dip coating is (A) 131 nmol/cm^2 and (B) 152.5 nmol/cm^2, respectively.

[3] = inhalation, cited from earlier work

solubility in water (Solubility in water): nearly completely insoluble in water
Compound: CCCCCCCCCCCCCC[C@@H](O)[C@@H](O)[C@@H](N)CO [phytosphingosine, D-ribo-phytosphingosine]

Compound: CCCCCCCCCCCCC/C=C/[C@@H](O)[C@@H](N)CO [sphingosine, D-erythrosphingosine (d18:1)]
amount of sphingosine calculated on the surface after dip coating [1]: 131 nmol/cm^2 | amount of sphingosine calculated on the surface after dip coating [2]: 152.5 nmol/cm^2 | solubility in water (Solubility in water): nearly completely insoluble in water | observable toxicity ([3]; mice): did not result in any observable toxicity | rates of pneumonia ([3]; susceptible mice): reduce rates of pneumonia in susceptible mice
